Data reported in US20090253709A1 (NATIONAL DEFENSE MEDICAL CENTER, priority 2008, published 2009).

Columns and labels:
Assay type in all cases: cell-based
[1] = test system: H1299; assay: MTT assay in H1299 cells; settings: for cytotoxicity to H1299 cancer cells compared with mitoxantrone: MTT assay
Method in brief: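 H1299 cells, 2×10^3 per well, treated with drug 48 h. MTT (5 mg/ml stock) added for 4 h at 37° C, then SDS/DMF lysis overnight; absorbance at 570 nm gives viability, used alongside SEAP reporter readout to correct for cell number.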

[2] = test system: different cancer cell lines; assay: In vitro cytotoxicity, Development Therapeutics Program, summary over all cell lines; settings: 1.0×10^−5 M
Excerpt: From the in vitro experiments of the Development Therapeutics Program of the Cancer Research Institute, the United States, it was known that the synthetic heterocyclic anthraquinone derivatives of the present invention have different inhibition levels to the different cancer cell lines under the concentration of 1.0×10^−5 M. Please refer to Table 2, which is the result of in vitro cytotoxicity of 2,7-disubstituted anthraquinone derivatives of the present invention.

[3] = test system: SK-MEL-2; assay: In vitro cytotoxicity, Development Therapeutics Program; settings: SK-MEL-2, melanoma; 1.0×10^−5 M
Method in brief: (§1)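 Read-out is the inhibition level of cancer cell growth in vitro. Each derivative was tested at 1.0×10^−5 M within the Development Therapeutics Program panel.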

[4] = test system: ACHN; assay: as above; settings: renal cancer, 1.0×10^−5 M
Method in brief: as §1

[5] = test system: RPMI-8226; assay: as above; settings: RPMI-8226, leukemia; 1.0×10^−5 M
Method in brief: as §1

[6] = test system: OVCAR-4; assay: as above; settings: OVCAR-4, ovarian cancer; 1.0×10^−5 M
Method in brief: as §1

[7] = test system: T-47D; assay: as above; settings: breast cancer, 1.0×10^−5 M
Method in brief: as §1

[8] = test system: 786-0; assay: as above; settings: 786-0, renal cancer; 1.0×10^−5 M
Method in brief: as §1

[9] = test system: SN12C; assay: as above; settings: renal cancer, 1.0×10^−5 M
Method in brief: as §1

[10] = test system: OVCAR-3; assay: as above; settings: OVCAR-3, ovarian cancer; 1.0×10^−5 M
Method in brief: as §1

[11] = test system: HOP-92; assay: as above; settings: HOP-92, non-small cell lung cancer; 1.0×10^−5 M
Method in brief: as §1

SMILES	cytotoxicity to H1299 cancer cells compared with mitoxantrone [1]	Cellular growth rate (%), Mean [2] [%]	Cellular growth rate (%) [3] [%]	Cellular growth rate (%) [4] [%]	Cellular growth rate (%) [5] [%]	Cellular growth rate (%) [6] [%]	Cellular growth rate (%) [7] [%]	Cellular growth rate (%) [8] [%]	Cellular growth rate (%) [9] [%]	Cellular growth rate (%) [10] [%]	Cellular growth rate (%) [11] [%]	MTT assay (cellular cytotoxicity) ([1]; low concentration (1 μM)) [%]
O=C(CN1CCCCC1)Nc1ccc2c(c1)C(=O)c1cc(NC(=O)CN3CCCCC3)ccc1C2=O [Compound 7, 2,7-Bis[2-(piperidino)acetamido]anthraquinone]	better than	–	–	–	–	–	–	–	–	–	–	–
CN(C)CC(=O)Nc1ccc2c(c1)C(=O)c1cc(NC(=O)CN(C)C)ccc1C2=O [Compound 8, 2,7-Bis[2-(dimethylamino)acetamido]anthraquinone]	–	28.70	−30.35	66.43	34.97	45.70	24.62	68.60	27.99	43.63	56.14	–
CCNCC(=O)Nc1ccc2c(c1)C(=O)c1cc(NC(=O)CNCC)ccc1C2=O [Compound 10, 2,7-Bis[2-(ethylamino)acetamido]anthraquinone]	better than	–	–	–	–	–	–	–	–	–	–	–
CCN(CC)CCC(=O)Nc1ccc2c(c1)C(=O)c1cc(NC(=O)CCN(CC)CC)ccc1C2=O [Compound 16, 2,7-Bis[3-(diethylamino)propionamido]anthraquinone]	–	16.33	−60.38	11.09	−29.02	24.92	68.62	24.72	8.63	10.39	9.70	–
O=C(CCN1CCCC1)Nc1ccc2c(c1)C(=O)c1cc(NC(=O)CCN3CCCC3)ccc1C2=O [Compound 18, 2,7-Bis[3-(pyrrolidino)propionamido]anthraquinone]	–	30.97	−45.21	29.65	47.90	49.82	58.98	40.51	6.68	36.88	7.04	–
CC(=O)Nc1ccc2c(c1)C(=O)c1cc(NC(C)=O)ccc1C2=O [Compound 26, 2,7-Bis(acetamido)anthraquinone]	–	99.06	30.15	96.93	121.47	103.60	96.17	97.72	113.35	111.06	101.26	–
O=C(Cc1ccccc1)Nc1ccc2c(c1)C(=O)c1cc(NC(=O)Cc3ccccc3)ccc1C2=O [Compound 30, 2,7-Bis(phenylacetamido)anthraquinone]	–	–	–	–	–	–	–	–	–	–	–	107±7
O=C1c2ccc(NC(=O)C3CC3)cc2C(=O)c2cc(NC(=O)C3CC3)ccc21 [Compound 32, 2,7-Bis(cyclopropanecarbonamido)anthraquinone]	better than	91.54	16.85	86.70	88.38	97.54	79.75	94.92	82.93	103.35	86.18	–
